Data set [1] in a line: Binding of 10 phosphate buffer. In kind it is protein assay. Particulars: Bos taurus.
The species named for the next data set is Oryctolagus cuniculus. Description: Maximum fall in ocular hypertension in the right eye of albino rabbits. In kind it is functional.
Data set [2] can be described thus: The aqueous solubility in 2% solution was determined; soluble. Type of data set: physicochemical. Particulars: buffer.
The target of data set [3] is T1, Carbonic anhydrase 2 (Homo sapiens, UniProt P00918).
The target of data set [4] is T1, Carbonic anhydrase 2. This is another data set of the same source.
Data set [5] has as its target T1, Carbonic anhydrase 2. This is another data set of the same source.
Data set [6] can be described thus: The aqueous solubility in 2% solution was determined; insoluble. In kind it is physicochemical. Particulars: buffer.
Data set [7] is described as follows: The aqueous solubility in 2% (+ = soluble, - = insoluble) solution was determined. Type of data set: physicochemical. Particulars: buffer.

Several values for one entry are separate records, joined by “and”; a condition that tells them apart may be missing. Identical values can stand only once.

As to `CC(C)CN[C@H]1CCS(=O)(=O)c2sc(S(N)(=O)=O)cc21`, the Binding in data set [1] was 12.3% and 12.8%.

In the data set filed under Oryctolagus cuniculus, `CC(C)CN[C@H]1CCS(=O)(=O)c2sc(S(N)(=O)=O)cc21.Cl` [SEZOLAMIDE HYDROCHLORIDE] yielded an Activity of -6.5 mmHg. Moreover, the Aqueous solubility entry in data set [2] is given as “Soluble”.

`NS(=O)(=O)c1cc2c(s1)S(=O)(=O)CCC2O` (stereo not drawn): the Activity in the data set filed under Oryctolagus cuniculus is on record as -6.9 mmHg. In addition, in data set [2], the Aqueous solubility entry was “Soluble”. Besides, the Binding in data set [1] came to 1.9%.

`CCCNC1CCS(=O)(=O)c2sc(S(N)(=O)=O)cc21.Cl` (stereo not drawn): in the data set listed under Oryctolagus cuniculus, the Activity is recorded as -8.7 mmHg. Further, the half-maximal inhibitory concentration (IC50) was found to be 9.2 nM on Carbonic anhydrase 2 [3] and 1.5 nM at Carbonic anhydrase 2 [5]. In addition, in data set [1], the Binding was found to be 19.8%. On Carbonic anhydrase 2 [4], the Ki worked out at 1.1 nM. Moreover, the Aqueous solubility result in data set [6] is given as “Insoluble”.

Compound `CCNC1CCS(=O)(=O)c2sc(S(N)(=O)=O)cc21.Cl` (stereo not drawn) displayed an Activity in the data set filed under Oryctolagus cuniculus of -4.2 mmHg. Also, the Aqueous solubility entry in data set [2] is given as “Soluble”. In addition, the Binding in data set [1] came out at 29.2%.

The compound `Cl.NC1CCS(=O)(=O)c2sc(S(N)(=O)=O)cc21` (stereo not drawn) had an Activity in the data set filed under Oryctolagus cuniculus of -3.3 mmHg. The IC50 amounted to 9.2 nM against Carbonic anhydrase 2 [3] and 3.2 nM against Carbonic anhydrase 2 [5]. In addition, the Aqueous solubility entry in data set [2] is reported as “Soluble”. In data set [1], this compound yielded a Binding of 32.1%. The compound further came in with a Ki on Carbonic anhydrase 2 [4] of 3.7 nM.

In turn, `CCN(CC)C1CCS(=O)(=O)c2sc(S(N)(=O)=O)cc21.Cl` (stereo not drawn) returned an Activity in the data set filed under Oryctolagus cuniculus of -5.3 mmHg. Further, the IC50 on Carbonic anhydrase 2 [3] worked out at 70 nM; on Carbonic anhydrase 2 [5], 12.3 nM. Besides, the Aqueous solubility result in data set [2] is listed as “Soluble”. In data set [1], this compound returned a Binding of 9%. Also, on Carbonic anhydrase 2 [4], the inhibitory constant (Ki) worked out at 9.3 nM.

`CNC1CCS(=O)(=O)c2sc(S(N)(=O)=O)cc21.Cl` (stereo not drawn) showed an Activity in the data set listed under Oryctolagus cuniculus of -3.3 mmHg. Also, the Aqueous solubility entry in data set [7] is reported as “Soluble”. The IC50 amounted to 13.9 nM on Carbonic anhydrase 2 [3] and 2.5 nM against Carbonic anhydrase 2 [5]. In addition, in data set [1], the Binding was determined as 23.7%. In addition, at Carbonic anhydrase 2 [4], the affinity, expressed as Ki, was 2.3 nM.

`CCCCNC1CCS(=O)(=O)c2sc(S(N)(=O)=O)cc21.Cl` (stereo not drawn) registered an Activity in the data set listed under Oryctolagus cuniculus of -5.7 mmHg. The IC50 against Carbonic anhydrase 2 [3] came out at 12.4 nM; at Carbonic anhydrase 2 [5], 2.3 nM. This compound also displayed a Binding in data set [1] of 25.6%. On Carbonic anhydrase 2 [4], this compound had a Ki of 1.8 nM. For the same compound, in data set [6], the Aqueous solubility result is listed as “Insoluble”.

Regarding `CC(C)CN[C@H]1CCS(=O)(=O)c2sc(S(N)(=O)=O)cc21` [SEZOLAMIDE], the Activity in the data set filed under Oryctolagus cuniculus is recorded as -4.3 mmHg. Besides, the Aqueous solubility result in data set [2] is listed as “Soluble”.

As to `CC(C)CN[C@@H]1CCS(=O)(=O)c2sc(S(N)(=O)=O)cc21.Cl`, the Activity in the data set filed under Oryctolagus cuniculus is -1.3 mmHg. In data set [2], the Aqueous solubility result is given as “Soluble”.

In general, IC50 refers to the midpoint of a concentration-inhibition curve. Higher therefore signals a need for much substance. Broadly, the Ki is the dissociation constant of the complex between target and ligand, obtained from inhibition or displacement. High values mean a looser hold on the target, low ones a stronger hold on the target.

(Values after ChEMBL document CHEMBL1124372, “Thienothiopyran-2-sulfonamides: novel topically active carbonic anhydrase inhibitors for the treatment of glaucoma” (J Med Chem, 1989).)
